Laboratory results reported in patent publication US20260347372A1, “SMALL MOLECULE INHIBITORS OF KRAS G12D MUTANT” (MERCK SHARP & DOHME LLC, priority 2023, published 2026).

Tests used:
[1] = biological target: KRAS G12V (Homo sapiens, UniProt P01116, G12V); experiment: SOS-catalyzed nucleotide exchange assay, KRAS G12V (Procedure A); assay type: biochemical; details: GNE
Summary of the method: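 Biotinylated KRAS G12V was loaded with Bodipy-GDP alongside Terbium-streptavidin to form a TR-FRET complex, which was preincubated with compounds for 60 minutes in 384-well plates. Human SOS protein and unlabeled GTP were then added for 90 minutes, giving final concentrations of 1.25 nM KRAS-G12V, 160 nM SOS and 3 mM GTP. The 520/495 nm emission ratio was read on an Envision.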

[2] = biological target: KRAS WT (Homo sapiens, UniProt P01116); experiment: SOS-catalyzed nucleotide exchange assay, KRAS WT (Procedure A); assay type: biochemical; details: GNE
Summary of the method: (§1)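 Preformed TR-FRET complex of biotinylated KRAS (G12C carries C51S/C80L/C118S; others native sequence), Bodipy-GDP and Tb-streptavidin preincubated with compound 60 min at room temperature. Exchange started with human SOS plus 3 mM GTP for 60 min (G13D 30 min). Final RAS/SOS: G12C 3/40 nM; WT, G12D 1/40 nM; G13D 1.25/0 nM. 520/495 nm ratio normalised, fitted to four-parameter logistic.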

[3] = biological target: T1, PANC08.13 cells (Homo sapiens, UniProt P01116, G12D); experiment: Cellular phospho-ERK assay, PANC08.13 cells (KRAS G12D); assay type: cell-based; details: 2 hours, read-out: PANCO 813 pERK IC50
T1 construct: p-ERK/total ERK AlphaSureFire read-out
Description: Procedure for Cellular Phospho-ERK Assay in KRAS Wild Type and Mutant (G12D, G12V) Cell Lines
PANC08.13 cells (ATCC® CRL-2551™), containing homozygous KRAS-G12D activating mutation, were cultured in growth medium made of RPMI1640-GlutaMAX™-I (ThermoFisher Scientific 61870) containing 15% heat inactivated fetal bovine serum (ThermoFisher Scientific 10091148)). AsPC-1 cells (ATCC® CRL-1682™), containing homozygous KRAS-G12D activating mutation, were cultured in T150 flask in growth medium (RPMI medium 1640-GlutaMAX™-I (ThermoFisher Scientific 61870) containing 10% fetal bovine serum (ThermoFisher Scientific 10091148)).
Cells for the assay were harvested in growth medium after TrypLE (ThermoFisher scientific 12604021) digestion and were seeded in a 384-well collagen coated cell culture plate (Corning 356702) at a density of 10,000-15,000 cells/20 μL/well, and incubated at 37° C., 5% CO2 overnight. The compound (with 10 mM stock concentration) dose-response titrations were prepared [30 μM final ERK detection assay concentration and 1:3 dilutions, 10-point dose response] and appropriate amounts (270 nL) of test compounds were dispensed in a 384-well intermediate plate using an Echo 550 liquid handler. 30 μL/well of RPMI medium 1640-GlutaMAX™-I was added to the intermediate plate and the contents of the intermediate plate (10 μL/well) were then transferred to the 384-well collagen coated cell culture plate, which was incubated at 37° C., 5% CO2 for 2 hours. After removal of medium from the collagen coated cell culture plate, cells were lysed in lysis buffer from Alpha SureFire® Ultra™ Multiplex p-ERK and total ERK assay kit (PerkinElmer MPSU-PTERK) containing Halt™ Protease and Phosphatase inhibitor cocktail (ThermoFisher Scientific 78446) at room temperature with constant shaking at 300 rpm for 30 minutes. The cell lysates were then transferred to an OptiPlate-384 plate (PerkinElmer 6005620), and the phosphorylation of ERK (p-ERK) and total ERK levels were detected by Alpha SureFire® Ultra™ Multiplex p-EEK kit and total ERK assay kit (PerkinElmer MPSU-PTERK) following the manufacturer's protocol. Assay plates were read on a EnVision Multimode Plate Reader (PerkinElmer), and the ratio of p-ERK vs. total ERK in each well was used as the final readout. Dose response curves were analyzed using a 4-parameter logistic model to calculate IC50 values using Spotfire software.

[4] = biological target: KRAS G12D (Homo sapiens, UniProt P01116, G12D); experiment: SOS-catalyzed nucleotide exchange assay, KRAS G12D (Procedure A); assay type: biochemical; details: guanine nucleotide exchange (GNE)
Summary of the method: as §1

[5] = biological target: NRAS (Homo sapiens, UniProt P01111); experiment: SOS-catalyzed nucleotide exchange assay, NRAS (Procedure A); assay type: biochemical; details: GNE
Summary of the method: (§2)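 Compounds were preincubated 60 min with a biotinylated RAS·Bodipy-GDP/Tb-streptavidin TR-FRET complex, and exchange was started with human SOS plus 3 mM GTP at RT. RAS/SOS: G12C 3 nM/40 nM, WT and G12D 1 nM/40 nM, all 60 min; G13D 1.25 nM/0 nM, 30 min. 520/495 ratio normalized to DMSO and saturating inhibitor, four-parameter fit.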

[6] = biological target: KRAS G13D (Homo sapiens, UniProt P01116, G13D); experiment: SOS-catalyzed nucleotide exchange assay, KRAS G13D (Procedure A); assay type: biochemical; details: GNE
Summary of the method: as §1

[7] = biological target: HRAS (Homo sapiens, UniProt P01112); experiment: SOS-catalyzed nucleotide exchange assay, HRAS (Procedure A); assay type: biochemical; details: GNE
Summary of the method: as §2

[8] = biological target: KRAS G12C (Homo sapiens, UniProt P01116, C118S/C51S/C80L/G12C); experiment: SOS-catalyzed nucleotide exchange assay, KRAS G12C (Procedure A); assay type: biochemical; details: GNE
Summary of the method: as §1

T1 sequence (P01116 1-188 isoform P01116-2 G12D): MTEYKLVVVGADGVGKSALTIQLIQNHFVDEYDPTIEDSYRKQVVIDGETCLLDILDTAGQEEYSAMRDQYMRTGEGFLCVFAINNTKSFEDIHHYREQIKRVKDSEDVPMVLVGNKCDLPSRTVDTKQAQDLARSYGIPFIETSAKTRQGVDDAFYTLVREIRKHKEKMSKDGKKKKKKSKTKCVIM
Sequence of KRAS G12C (P01116 with tags, fused parts or gaps isoform P01116-2 G12C/C51S/C80L/C118S): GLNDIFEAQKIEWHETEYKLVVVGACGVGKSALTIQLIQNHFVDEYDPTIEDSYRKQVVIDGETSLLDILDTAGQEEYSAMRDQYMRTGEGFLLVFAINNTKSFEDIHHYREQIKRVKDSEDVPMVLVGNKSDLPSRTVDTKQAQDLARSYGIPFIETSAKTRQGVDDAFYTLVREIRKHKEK
Sequence of KRAS WT (P01116 with tags, fused parts or gaps isoform P01116-2): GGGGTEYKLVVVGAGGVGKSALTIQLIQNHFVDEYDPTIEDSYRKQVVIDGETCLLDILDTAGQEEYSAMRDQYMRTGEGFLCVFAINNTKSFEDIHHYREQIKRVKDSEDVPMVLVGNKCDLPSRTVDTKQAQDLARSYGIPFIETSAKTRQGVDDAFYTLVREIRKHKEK
Sequence of HRAS (P01112 with tags, fused parts or gaps): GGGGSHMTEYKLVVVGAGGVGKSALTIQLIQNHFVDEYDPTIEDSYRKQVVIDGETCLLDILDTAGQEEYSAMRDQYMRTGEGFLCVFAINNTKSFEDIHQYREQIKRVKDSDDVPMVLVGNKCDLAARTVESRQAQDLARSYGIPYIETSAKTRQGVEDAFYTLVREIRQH
Sequence of NRAS (P01111 with tags, fused parts or gaps): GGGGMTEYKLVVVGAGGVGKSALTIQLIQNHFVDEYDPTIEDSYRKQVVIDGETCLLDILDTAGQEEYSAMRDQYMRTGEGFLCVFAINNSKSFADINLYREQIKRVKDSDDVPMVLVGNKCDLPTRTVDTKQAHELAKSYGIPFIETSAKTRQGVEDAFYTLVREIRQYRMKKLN
Sequence of KRAS G12D (P01116 with tags, fused parts or gaps isoform P01116-2 G12D): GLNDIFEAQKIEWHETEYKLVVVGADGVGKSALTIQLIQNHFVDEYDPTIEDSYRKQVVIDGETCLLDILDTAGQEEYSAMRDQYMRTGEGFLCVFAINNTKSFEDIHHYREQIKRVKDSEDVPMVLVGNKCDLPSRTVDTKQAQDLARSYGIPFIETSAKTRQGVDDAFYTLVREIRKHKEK
Sequence of KRAS G12V (P01116 with tags, fused parts or gaps isoform P01116-2 G12V): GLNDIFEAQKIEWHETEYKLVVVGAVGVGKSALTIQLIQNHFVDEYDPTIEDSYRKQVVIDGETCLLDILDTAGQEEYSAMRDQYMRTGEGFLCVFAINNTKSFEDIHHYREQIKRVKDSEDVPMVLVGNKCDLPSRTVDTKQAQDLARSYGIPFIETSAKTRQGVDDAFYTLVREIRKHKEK
Sequence of KRAS G13D (P01116 with tags, fused parts or gaps isoform P01116-2 G13D): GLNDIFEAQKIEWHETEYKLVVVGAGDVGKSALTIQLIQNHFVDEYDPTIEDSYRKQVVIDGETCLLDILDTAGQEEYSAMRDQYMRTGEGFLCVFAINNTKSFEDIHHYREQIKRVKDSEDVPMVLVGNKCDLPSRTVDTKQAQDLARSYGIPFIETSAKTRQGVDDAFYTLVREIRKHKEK

Row | Structure (SMILES) | IC50 [1] [µM] | IC50 [2] [µM] | IC50 [3] [µM] | IC50 [4] [µM] | IC50 [5] [µM] | IC50 [6] [µM] | IC50 [7] [µM] | IC50 [8] [µM]
1 | Cc1cc2[nH]ncc2c(-c2nccc3c2sc2nc(OC[C@]4(CO)CC4(F)F)nc(N4C[C@H]5CC[C@@H](C4)N5)c23)c1OC(F)F [Ex-51, ((1R)-1-(((4-((1R,5S)-3,8-diazabicyclo[3.2.1]octan-3-yl)-8-(5-(difluoromethoxy)-6-methyl-1H-indazol-4-yl)pyrido[4′,3′:4,5]thieno[2,3-d]pyrimidin-2-yl)oxy)methyl)-2,2-difluorocyclopropyl)methanol] | > 11.1 | > 11.1 | 6.81 | 2.15 | – | – | – | –
2 | Cc1cc2[nH]nc(C#N)c2c(-c2nccc3c2sc2nc(OC[C@@]45CCCN4C[C@H](F)C5)nc(N4C[C@H]5CC[C@@H](C4)N5)c23)c1C(F)F [Ex-18, 4-(4-((1R,5S)-3,8-diazabicyclo[3.2.1]octan-3-yl)-2-(((2R,7aS)-2-fluorotetrahydro-1H-pyrrolizin-7a(5H)-yl)methoxy)pyrido[4′,3′:4,5]thieno[2,3-d]pyrimidin-8-yl)-5-(difluoromethyl)-6-methyl-1H-indazole-3-carbonitrile] | > 11.1 | > 11.1 | 0.666 | 0.123 | – | – | – | –
3 | N#Cc1c(N)sc2c(F)cc(F)c(-c3nccc4c3sc3nc(OC[C@]5(CO)CC5(F)F)nc(N5C[C@H]6CC[C@@H](C5)N6)c34)c12 [Ex-61, 4-(4-((1R,5S)-3,8-diazabicyclo[3.2.1]octan-3-yl)-2-(((R)-2,2-difluoro-1-(hydroxymethyl)cyclopro-pyl)methoxy)pyrido[4′,3′: 4,5]thieno[2,3-d]pyrimidin-8-yl)-2-amino-5,7-difluorobenzo[b]thiophene-3-carbonitrile] | > 11.1 | > 11.1 | 7.35 | 0.859 | – | – | – | –
4 | Cc1cc2[nH]ncc2c(-c2nccc3c2sc2nc(OCC4(CO)CCC4)nc(N4C[C@H]5CC[C@@H](C4)N5)c23)c1C(F)F [Ex-64, (1-(((4-((1R,5S)-3,8-diazabicyclo[3.2.1]octan-3-yl)-8-(5-(difluoromethyl)-6-methyl-1H-indazol-4-yl)pyrido[4′,3′:4,5]thieno[2,3-d]pyrimidin-2-yl)oxy)methyl)cyclobutyl)methanol] | > 11.1 | > 11.1 | > 10 | 9.42 | – | – | – | –
5 | N#Cc1c(N)sc2c(F)ccc(-c3nccc4c3sc3nc(OC[C@]5(CO)CC5(F)F)nc(N5CC6CCC(C5)N6)c34)c12 [Ex-60, 4-(4-(3,8-diazabicyclo[3.2.1]octan-3-yl)-2-(((R)-2,2-difluoro-1-(hydroxymethyl)cyclopropyl)methoxy)pyrido[4′,3′:4,5]thieno[2,3-d]pyrimidin-8-yl)-2-amino-7-fluorobenzo[b]thiophene-3-carbonitrile] | > 11.1 | > 11.1 | 10 | 2.69 | – | – | – | –
6 | CCn1c2nc(OC[C@@]34CCCN3C[C@H](F)C4)nc(N3C[C@H]4CC[C@@H](C3)N4)c2c2ccnc(-c3c(C(F)(F)F)c(C)cc4[nH]ncc34)c21 [Ex-11, 4-((1R,5S)-3,8-diazabicyclo[3.2.1]octan-3-yl)-9-ethyl-2-(((2R,7aS)-2-fluorotetrahydro-1H-pyrrolizin-7a(5H)-yl)methoxy)-8-(6-methyl-5-(trifluoromethyl)-1H-indazol-4-yl)-9H-pyrido[4′,3′:4,5]pyrrolo[2,3-d]pyrimidine] | > 11.1 | > 11.1 | 2.48 | 0.698 | – | – | – | –
7 | Cc1cc2[nH]ncc2c(-c2nccc3c2sc2nc(OC[C@]4(CO)CC4(F)F)nc(N4C[C@H]5CC[C@@H](C4)N5)c23)c1OC(F)(F)Cl [Ex-52, ((1R)-1-(((4-((1R,5S)-3,8-diazabicyclo[3.2.1]octan-3-yl)-8-(5-(chlorodifluoromethoxy)-6-methyl-1H-indazol-4-yl)pyrido[4′,3′:4,5]thieno[2,3-d]pyrimidin-2-yl)oxy)methyl)-2,2-difluorocyclopro-pyl)methanol] | > 11.1 | > 11.1 | 2.77 | 0.724 | – | – | – | –

Next, values leading:

Row | IC50 [1] [µM] | IC50 [2] [µM] | IC50 [3] [µM] | IC50 [4] [µM] | IC50 [5] [µM] | IC50 [6] [µM] | IC50 [7] [µM] | IC50 [8] [µM] | Structure (SMILES)
8 | > 11.1 | > 11.1 | 1.64 | 0.024 | > 11.1 | > 11.1 | > 11.1 | > 11.1 | N#Cc1c(N)sc2c(F)ccc(-c3nccc4c3sc3nc(OC[C@@]56CCCN5C[C@H](F)C6)nc(N5C[C@H]6CC[C@@H](C5)N6)c34)c12 [Ex-17, 4-(4-((1R,5S)-3,8-diazabicyclo[3.2.1]octan-3-yl)-2-(((2R,7aS)-2-fluorotetrahydro-1H-pyrrolizin-7a(5H)-yl)methoxy)pyrido[4′,3′:4,5]thieno [2,3-d]pyrimidin-8-yl)-2-amino-7-fluorobenzo[b] thiophene-3-carbonitrile]
9 | > 11.1 | > 11.1 | 3.75 | 0.119 | > 11.1 | 4.02 | > 11.1 | > 11.1 | Cc1cc2[nH]nc(C#N)c2c(-c2nccc3c4c(N5C[C@H]6CC[C@@H](C5)N6)nc(OC[C@@]56CCCN5C[C@H](F)C6)nc4n(C)c23)c1C(F)F (single isomer, unassigned) [Ex-4]
10 | > 11.1 | > 11.1 | > 10 | 4.99 | > 11.1 | > 11.1 | > 11.1 | > 11.1 | Nc1nc2c(-c3nccc4c3sc3nc(OC[C@@]56CCCN5C[C@H](F)C6)nc(N5C[C@H]6CC[C@@H](C5)N6)c34)c(F)cc(F)c2o1 [Ex-15, 4-(4-((1R,5S)-3,8-diazabicyclo[3.2.1]octan-3-yl)-2-(((2R,7aS)-2-fluorotetrahydro-1H-pyrrolizin-7a(5H)-yl)methoxy)pyrido[4′,3′:4,5]thieno [2,3-d]pyrimidin-8-yl)-5,7-difluorobenzo[d]oxazol-2-amine]
11 | > 11.1 | > 11.1 | 0.572 | 0.051 | > 11.1 | 1.45 | > 11.1 | > 11.1 | C#Cc1c(F)ccc2cc(N)nc(-c3nccc4c5c(N6C[C@H]7CC[C@@H](C6)N7)nc(OC[C@@]67CCCN6C[C@H](F)C7)nc5n(C)c34)c12 [Ex-7, 1-(4-((1R,5S)-3,8-diazabicyclo[3.2.1]octan-3-yl)-2-(((2R,7aS)-2-fluorotetrahydro-1H-pyrrolizin-7a(5H)-yl)methoxy)-9-methyl-9H-pyrido[4′,3′:4,5]pyrrolo[2,3-d]pyrimidin-8-yl)-8-ethynyl-7-fluoroisoquinolin-3-amine]
12 | > 11.1 | > 11.1 | 9.74 | 0.283 | – | – | – | – | Nc1nc2c(-c3nccc4c3sc3nc(OC[C@@]56CCCN5C[C@H](F)C6)nc(N5C[C@H]6CC[C@@H](C5)N6)c34)ccc(F)c2s1 [Ex-16, 4-(4-((1R,5S)-3,8-diazabicyclo[3.2.1]octan-3-yl)-2-(((2R,7aS)-2-fluorotetrahydro-1H-pyrrolizin-7a(5H)-yl)methoxy)pyrido[4′,3′:4,5]thieno [2,3-d]pyrimidin-8-yl)-7-fluorobenzo[d]thiazol-2-amine]
